Test results reported in US8324246B2, “Indol carboxylic acid bispyridyl carboxamide derivatives, pharmaceutically acceptable salt thereof, preparation method and composition containing the same as an active ingredient” (Korea Research Institute of Chemical Technology, priority 2008, dated 2012).
Like-named read-outs stand apart in the source and are kept apart here.

Columns and labels:
[1] = target: T1, human gene recombinant 5-HT2c receptor expressed in CHO-K1 cell (Homo sapiens, UniProt P28335); assay: Binding affinity to the serotonin 5-HT2c receptor ([3H]mesulergine)
T1 construct: purchased Euroscreen, Belgium; host or cells: CHO-K1
T1 sequence (P28335 33-458): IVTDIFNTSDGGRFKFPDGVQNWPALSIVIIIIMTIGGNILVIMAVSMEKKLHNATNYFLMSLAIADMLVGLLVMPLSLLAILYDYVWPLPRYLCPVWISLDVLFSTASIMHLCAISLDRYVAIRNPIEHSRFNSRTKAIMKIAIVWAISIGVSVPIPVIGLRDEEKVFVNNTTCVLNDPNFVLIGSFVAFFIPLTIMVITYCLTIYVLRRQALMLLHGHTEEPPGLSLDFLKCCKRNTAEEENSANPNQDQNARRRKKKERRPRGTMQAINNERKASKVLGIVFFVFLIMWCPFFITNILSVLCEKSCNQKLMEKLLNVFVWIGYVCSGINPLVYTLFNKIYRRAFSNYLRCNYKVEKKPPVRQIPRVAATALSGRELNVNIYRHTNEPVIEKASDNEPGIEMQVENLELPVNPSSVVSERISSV
Description: As a receptor, a human gene recombinant 5-HT2c receptor expressed in CHO—K1 cell was purchased from Euroscreen, Belgium and used in the experiment, and as a radioactive isotope, [3H]mesulergine (Amersham Biosciences, UK).
A final volume of 0.25 ml reaction mixture was prepared by adding 50 mM Tris-HCl buffer (pH 7.7) containing one of the compounds in Examples 1-29 or Comparative Examples 1-2, 1 nM of [3H]mesulergine, 5-HT2c receptor membranes (4 D/well), 0.1% ascorbic acid and 10 µM pargyline, and incubated at 37° C. for 30 minutes. After incubation, the reaction was terminated by the rapid filtration using an Inotech harvester (Inotech) through a Wallace GF/C glass fiber filter (Wallac, Finland) which was presoaked in 1% BSA, and then washed with ice-cold 50 mM Tris-HCl buffer. The filter was covered with MeltiLex, sealed in a sample bag followed by drying in the oven, and counted by MicroBeta Plus (Wallac). Non-specific binding was determined in the presence of […] Mianserin. Three repeating experiments were carried out with 7-8 concentrations of the compound in Examples 1-29 or the compound in comparative examples 1-2, run in duplicate tubes, and isotherms from the three assays were calculated by a nonlinear regression analysis (GraphPad Prism Program, San Diego, USA) to yield IC50 values.

[2] = target: T2, D4 (Homo sapiens, UniProt P21917); assay: Receptor selectivity binding, D4; conditions: Table 3
T2 sequence (P21917 1-419): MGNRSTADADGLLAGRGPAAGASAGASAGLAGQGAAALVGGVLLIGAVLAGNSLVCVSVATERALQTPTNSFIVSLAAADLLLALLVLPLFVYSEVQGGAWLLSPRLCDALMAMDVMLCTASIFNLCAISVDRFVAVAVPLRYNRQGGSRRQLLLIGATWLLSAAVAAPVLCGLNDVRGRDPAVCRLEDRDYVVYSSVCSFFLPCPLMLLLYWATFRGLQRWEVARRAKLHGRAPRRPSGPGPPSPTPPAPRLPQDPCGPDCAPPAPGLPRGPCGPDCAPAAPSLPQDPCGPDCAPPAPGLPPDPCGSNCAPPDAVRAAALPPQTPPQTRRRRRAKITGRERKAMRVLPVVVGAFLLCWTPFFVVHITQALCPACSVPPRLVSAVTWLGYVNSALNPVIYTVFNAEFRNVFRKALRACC
Description: (§1) For their high binding affinities for 5-HT2c, compounds in Examples 14 to 18, 20, and 22 or in Comparative Example 1 were used for the experiment with reaction mixtures. Except that CNS receptors such as 5-HT1a, 5-HT2a, 5-HT7, D2, D3 or D4 other than 5-HT2c were used as a receptor, IC50 values (nM) were measured in the same manner as in Experimental Example 1.

[3] = target: 5-HT2a (Homo sapiens, UniProt P28223); assay: Receptor selectivity binding, 5-HT2a; conditions: Table 3
Description: as §1

[4] = target: D2 (Homo sapiens, UniProt P14416); assay: Receptor selectivity binding, D2; conditions: Table 3
Description: as §1

[5] = target: 5-HT6 (Homo sapiens, UniProt P50406); assay: Receptor selectivity binding, 5-HT6; conditions: Table 3
Description: as §1

[6] = target: D3 (Homo sapiens, UniProt P35462); assay: Receptor selectivity binding, D3; conditions: Table 3
Description: as §1

[7] = target: T3, 5-HT1a (Homo sapiens, UniProt P08908); assay: Receptor selectivity binding, 5-HT1a; conditions: Table 3
T3 sequence (P08908 1-422): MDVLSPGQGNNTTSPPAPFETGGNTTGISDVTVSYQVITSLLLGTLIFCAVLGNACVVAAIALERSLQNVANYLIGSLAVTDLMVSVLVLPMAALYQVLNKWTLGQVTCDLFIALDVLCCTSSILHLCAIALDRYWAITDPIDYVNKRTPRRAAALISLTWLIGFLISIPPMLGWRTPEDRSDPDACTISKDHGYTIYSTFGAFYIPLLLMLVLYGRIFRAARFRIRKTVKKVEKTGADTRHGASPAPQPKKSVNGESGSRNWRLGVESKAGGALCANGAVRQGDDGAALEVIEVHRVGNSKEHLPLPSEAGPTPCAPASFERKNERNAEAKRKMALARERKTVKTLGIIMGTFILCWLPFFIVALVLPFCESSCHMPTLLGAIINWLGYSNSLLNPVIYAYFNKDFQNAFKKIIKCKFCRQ
Description: as §1

[8] = target: 5-HT7 (Homo sapiens, UniProt P34969); assay: Receptor selectivity binding, 5-HT7; conditions: Table 3
Description: as §1

[9] = [3H]mesulergine 1 nM, 37° C. 30 minutes, Table 2, read-out: IC50

D3, sequence (P35462 whole entry): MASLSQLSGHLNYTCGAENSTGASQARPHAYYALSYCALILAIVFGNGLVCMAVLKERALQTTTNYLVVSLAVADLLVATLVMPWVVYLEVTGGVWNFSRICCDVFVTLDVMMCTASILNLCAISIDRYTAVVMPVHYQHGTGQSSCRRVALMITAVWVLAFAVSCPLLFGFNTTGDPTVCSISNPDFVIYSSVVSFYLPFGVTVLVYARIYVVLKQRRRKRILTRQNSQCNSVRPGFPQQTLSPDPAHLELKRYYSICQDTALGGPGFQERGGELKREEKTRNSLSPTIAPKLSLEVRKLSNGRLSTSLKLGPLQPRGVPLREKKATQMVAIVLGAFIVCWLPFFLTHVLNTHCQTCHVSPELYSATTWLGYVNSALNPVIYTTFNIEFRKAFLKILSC
D2, sequence (P14416 whole entry): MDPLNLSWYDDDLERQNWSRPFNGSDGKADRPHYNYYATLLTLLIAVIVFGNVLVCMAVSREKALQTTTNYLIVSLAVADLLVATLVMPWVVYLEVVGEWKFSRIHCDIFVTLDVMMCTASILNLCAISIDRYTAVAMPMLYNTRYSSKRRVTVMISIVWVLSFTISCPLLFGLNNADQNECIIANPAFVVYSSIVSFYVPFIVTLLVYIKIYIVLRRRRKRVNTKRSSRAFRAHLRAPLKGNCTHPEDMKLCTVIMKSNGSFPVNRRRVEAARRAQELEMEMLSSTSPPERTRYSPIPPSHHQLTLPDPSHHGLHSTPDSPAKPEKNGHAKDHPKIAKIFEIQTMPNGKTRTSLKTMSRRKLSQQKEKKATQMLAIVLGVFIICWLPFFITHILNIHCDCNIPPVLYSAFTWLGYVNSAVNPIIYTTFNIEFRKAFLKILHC
5-HT2a, sequence (P28223 whole entry, species assumed): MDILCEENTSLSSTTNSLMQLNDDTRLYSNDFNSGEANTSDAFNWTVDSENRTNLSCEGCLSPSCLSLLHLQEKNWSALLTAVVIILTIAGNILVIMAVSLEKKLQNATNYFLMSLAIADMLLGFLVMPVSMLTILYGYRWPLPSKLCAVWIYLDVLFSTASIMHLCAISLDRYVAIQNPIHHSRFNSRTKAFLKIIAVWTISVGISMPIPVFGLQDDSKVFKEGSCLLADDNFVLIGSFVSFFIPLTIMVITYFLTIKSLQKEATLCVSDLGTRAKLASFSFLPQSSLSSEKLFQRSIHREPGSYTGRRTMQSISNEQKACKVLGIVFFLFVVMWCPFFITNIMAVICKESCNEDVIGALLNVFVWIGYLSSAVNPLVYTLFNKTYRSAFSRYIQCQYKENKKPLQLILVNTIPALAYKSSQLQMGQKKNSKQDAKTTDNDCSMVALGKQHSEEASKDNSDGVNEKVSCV
5-HT6, sequence (P50406 whole entry, species assumed): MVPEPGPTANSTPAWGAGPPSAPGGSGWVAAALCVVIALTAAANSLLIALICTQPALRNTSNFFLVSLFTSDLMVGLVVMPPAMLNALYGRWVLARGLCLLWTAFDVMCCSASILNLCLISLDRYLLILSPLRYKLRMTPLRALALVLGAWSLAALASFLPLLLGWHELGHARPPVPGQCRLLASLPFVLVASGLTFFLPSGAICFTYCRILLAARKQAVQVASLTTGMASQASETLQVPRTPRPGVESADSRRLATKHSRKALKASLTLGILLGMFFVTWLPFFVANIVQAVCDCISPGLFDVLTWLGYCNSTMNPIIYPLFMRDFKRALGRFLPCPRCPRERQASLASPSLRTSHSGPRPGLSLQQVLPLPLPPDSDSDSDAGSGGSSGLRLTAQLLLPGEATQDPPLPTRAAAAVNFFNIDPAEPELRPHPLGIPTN
5-HT7, sequence (P34969 whole entry, species assumed): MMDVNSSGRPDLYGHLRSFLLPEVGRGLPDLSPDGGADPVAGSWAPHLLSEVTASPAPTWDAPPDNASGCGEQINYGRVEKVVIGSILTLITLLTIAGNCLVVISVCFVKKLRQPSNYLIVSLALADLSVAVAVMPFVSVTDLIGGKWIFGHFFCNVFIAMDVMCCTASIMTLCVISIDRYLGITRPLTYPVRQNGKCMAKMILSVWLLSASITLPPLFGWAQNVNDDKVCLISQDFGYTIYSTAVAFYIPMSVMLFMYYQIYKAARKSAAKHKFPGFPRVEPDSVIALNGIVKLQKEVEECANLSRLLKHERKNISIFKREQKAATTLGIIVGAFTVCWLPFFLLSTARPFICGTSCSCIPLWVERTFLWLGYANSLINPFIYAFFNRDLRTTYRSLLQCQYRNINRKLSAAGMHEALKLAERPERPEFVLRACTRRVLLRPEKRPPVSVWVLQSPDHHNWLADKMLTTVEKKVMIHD

| Compound | IC50 [1, 9] | melting point | also measured |
| --- | --- | --- | --- |
| Cc1ncccc1Oc1ccc(NS(=O)(=O)c2csc3ccccc23)cn1 [Example 2, benzo[b]thiophene-3-sulfonic acid[6-(2-methyl-pyridine-3-yloxy)-pyridine-3-yl]-amide] | 572 nM | 93 to 95 °C |  |
| Cc1ccc2c(C(=O)Nc3ccc(Oc4cccnc4Cl)nc3)c[nH]c2c1 [Example 28, 6-methyl-1H-indole-3-carboxylic acid[6-(2-chloro-pyridine-3-yloxy)-pyridine-3-yl]-amide] | 7 nM |  |  |
| Cc1ncccc1Oc1ccc(NC(=S)c2c[nH]c3ccccc23)cn1 [Example 10] | 23 nM |  |  |
| Cc1cc2c(cc1C(F)(F)F)N(C(=O)Nc1ccc(OCc3ccccn3)nc1)CC2 [Comparative Example 2, SB-247853] | 1.3 nM | 220 to 222 °C |  |
| Cc1ncccc1Oc1ccc(N(C)C(=O)c2c[nH]c3ccccc23)cn1 [Example 12, 1H-indole-3-carboxylic acid methyl-[6-(2-methyl-pyridine-3-yloxy)-pyridine-3-yl]-amide] | 9440 nM |  |  |
| Cc1ncccc1Oc1ccc(N(C)C(=O)c2cn(C)c3ccccc23)cn1 [Example 13, 1-methyl-1H-indole-3-carboxylic acid methyl-[6-(2-methyl-pyridine-3-yloxy)-pyridine-3-yl]-amide] | 6370 nM |  |  |
| Cc1ncccc1Oc1ccc(NC(=O)c2c[nH]c3ccc(I)cc23)cn1 [Example 18, 5-iodo-1H-indole-3-carboxylic acid[6-(2-methyl-pyridine-3-yloxy)-pyridine-3-yl]-amide] | 0.6 nM |  | IC50 [2]: > 1000 nM; IC50 [3]: 84.7 nM; IC50 [4]: > 10000 nM; IC50 [5]: > 1000 nM; IC50 ([1]; Table 3, read-out: IC50 5-HT2c): 0.62 nM; IC50 [6]: > 1000 nM; IC50 [7]: 780 nM; IC50 [8]: > 1000 nM |
| Cc1ccc(Oc2ccc(NC(=O)c3c[nH]c4ccccc34)cn2)cn1 [Example 21, 1H-indole-3-carboxylic acid[6-(6-methyl-pyridine-3-yloxy)-pyridine-3-yl]-amide] | 2250 nM |  |  |
| O=C(Nc1ccc(-c2cccnc2)cc1)c1c[nH]c2ccccc12 [Example 27, 1H-indole-3-carboxylic acid (4-pyridine-3-yl-phenyl)-amide] | 214 nM |  |  |
| O=C(Nc1ccc(Oc2ccccc2)nc1)c1c[nH]c2ccccc12 [Example 25, 1H-indole-3-carboxylic acid(6-phenoxy-pyridine-3-yl)-amide] | 542 nM |  |  |
| O=C(Nc1cccnc1)c1c[nH]c2ccccc12 [Example 26, 1H-indole-3-carboxylic acid pyridine-3-ylamide] | > 1000 nM |  |  |
| Cc1ncccc1Oc1ccc(NC(=O)c2c[nH]c3ccccc23)cn1 [Example 6, 1H-indole-3-carboxylic acid[6-(2-methyl-pyridine-3-yloxy)-pyridine-3-yl]-amide] | 67 nM | 108 to 110 °C |  |
| Cc1ncccc1Oc1ccc(NC(=O)c2coc3ccccc23)cn1 [Example 3, benzofuran-3-carboxylic acid[6-(2-methyl-pyridine-3-yloxy)-pyridine-3-yl]-amide] | 167 nM | 52 to 55 °C |  |
| O=C(Nc1ccc(Oc2cccnc2)nc1)c1c[nH]c2ccccc12 [Example 24, 1H-indole-3-carboxylic acid[6-(pyridine-3-yloxy)-pyridine-3-yl]-amide] | 1.6 nM |  |  |
| Cc1ccc2c(C(=O)Nc3ccc(Oc4cccnc4C)nc3)c[nH]c2c1 [Example 16, 6-methyl-1H-indole-3-carboxylic acid[6-(2-methyl-pyridine-3-yloxy)-pyridine-3-yl]-amide] | 1.9 nM |  | IC50 [2]: > 10000 nM; IC50 [3]: > 10000 nM; IC50 [4]: > 10000 nM; IC50 [5]: > 10000 nM; IC50 ([1]; Table 3, read-out: IC50 5-HT2c): 1.9 nM; IC50 [6]: > 10000 nM; IC50 [7]: > 10000 nM; IC50 [8]: > 10000 nM |
| Cc1ncccc1Oc1ccc(NC(=O)c2ccc3ccccc3c2)cn1 [Example 8, naphthalene-2-carboxylic acid[6-(2-methyl-pyridine-3-yloxy)-pyridine-3-yl]-amide] | 302 nM | 156 to 158 °C |  |
| O=C(Nc1ccc(Oc2cccnc2Br)nc1)c1c[nH]c2ccccc12 [Example 23, 1H-indole-3-carboxylic acid[6-(2-bromo-pyridine-3-yloxy)-pyridine-3-yl]-amide] | 106 nM |  |  |
| Cc1ncccc1Oc1ccc(NS(=O)(=O)c2coc3ccccc23)cn1 [Example 1, benzofuran-3-sulfonic acid[6-(2-methyl-pyridine-3-yloxy)-pyridine-3-yl]-amide] | 321 nM | 128 to 129 °C |  |
| Cc1ncccc1Oc1ccc(NC(=O)c2nc3ccccc3[nH]2)cn1 [Example 7, 1H-benzoimidazole-2-carboxylic acid[6-(2-methyl-pyridine-3-yloxy)-pyridine-3-yl]-amide] | > 10000 nM | 191 to 193 °C |  |
| 1H-indole-2-carboxylic acid[6-(2-methyl-pyridine-3-yloxy)-pyridine-3-yl]-amide [Example 5] | 59 nM |  |  |
| Cc1ncccc1Oc1ccc(NC(=O)c2csc3ccccc23)cn1 [Example 4, benzo[b]thiophene-3-carboxylic acid[6-(2-methyl-pyridine-3-yloxy)-pyridine-3-yl]-amide] | 50 nM | 81 to 83 °C |  |
| Cc1ncccc1Oc1ccc(NC(=O)c2cn(C)c3ccccc23)cn1 [Example 11, 1-methyl-1H-indole-3-carboxylid acid[6-(2-methyl-pyridine-3-yloxy)-pyridine-3-yl]-amide] | 474 nM |  |  |
| Cc1ncccc1Oc1ccc(NCc2c[nH]c3ccccc23)cn1 [Example 9, (1H-indole-3-ylmethyl)-[6-(2-methyl-pyridine-3-yloxy)-pyridine-3-yl]-amine] | > 10000 nM |  |  |
| COc1nc(OC)nc(Oc2ccc(NC(=O)c3c[nH]c4ccccc34)cc2)n1 [Example 29, 1H-indole-3-carboxylic acid[4-(4,6-dimethoxy-[1,3,5]triazine-2-ylxoxy)-phenyl]-amide] | > 10000 nM |  |  |
| O=C(Nc1ccc(Oc2cncnc2)nc1)c1c[nH]c2ccccc12 [Example 19, 1H-indole-3-carboxylic acid[6-(pyrimidin-5-yloxy)-pyridine-3-yl]-amide] | 50 nM |  |  |
